From patent US20230406840A1, “N-(2-(3-CYANO-2-AZABICYCLO[3.1.0]HEXAN-2-YL)-2-OXOETHYL)QUINOLINE-4-CARBOXAMIDES” (AstraZeneca AB, priority 2022, published 2023)

How the values were obtained:
[1] = target: Prolyl Oligopeptidase (hPREP) (Homo sapiens (Human), UniProt P48147); assay: hPREP inhibition assay; assay type: biochemical; conditions: hPREP 0.6 nM, Z-Gly-Pro-amino-methylcoumarin 50 μM; read-out: PREP IC50
In short: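 Recombinant human PREP at 0.6 nM final, with Z-Gly-Pro-AMC substrate at 50 μM final. Buffer: 25 mM Tris HCl pH 7.5, 250 mM NaCl, 0.01% Triton X-100, 5 mM glutathione. Incubated 20 min at rt in the dark; fluorogenic AMC release read.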

[2] = target: human dipeptidylpeptidase 7 (hDPP7) (Homo sapiens (Human), UniProt Q9UHL4); assay: hDPP7 inhibition assay; assay type: biochemical; conditions: highest compound concentration 10 μM; n = 1
Description: Compounds were tested in a biochemical inhibition assay using human dipeptidylpeptidase 7 (hDPP7) enzyme (BPS Bioscience, #80070) and the substrate Ala-Pro-amino-methylcoumarin (BPS Bioscience, #80305) at 10 μM FAC. The enzymatic reactions were conducted in duplicate at rt for 20 min in 50 μL assay buffer (10 mM Tris-HCl, pH 7.4, 10 mM MgCl2, 1 mM MnCl2). Compound solutions (in DMSO) at 10 CR, 3-fold dilution series were prepared in assay buffer ten-fold higher than the final concentration, and 5 μL of the dilution was added to a 50 μL reaction so that the highest compound concentration was 10 μM FAC and the concentration of DMSO was 1% in all wells. The plates were read on a PHERAstarPLUS (BMG) using kinetic mode with excitation 340 nm and emission 460 nm. Data were analyzed in Graph Pad Prism. Raw data signals were normalized using 1% DMSO as 0% control and no enzyme as 100% inhibitor control.

[3] = target: human dipeptidylpeptidase 9 (hDPP9) (Homo sapiens (Human), UniProt Q86TI2); assay: hDPP9 inhibition assay; assay type: biochemical; conditions: highest compound concentration 10 μM; n = 1
Chain of human dipeptidylpeptidase 9 (hDPP9) (Q86TI2 whole entry): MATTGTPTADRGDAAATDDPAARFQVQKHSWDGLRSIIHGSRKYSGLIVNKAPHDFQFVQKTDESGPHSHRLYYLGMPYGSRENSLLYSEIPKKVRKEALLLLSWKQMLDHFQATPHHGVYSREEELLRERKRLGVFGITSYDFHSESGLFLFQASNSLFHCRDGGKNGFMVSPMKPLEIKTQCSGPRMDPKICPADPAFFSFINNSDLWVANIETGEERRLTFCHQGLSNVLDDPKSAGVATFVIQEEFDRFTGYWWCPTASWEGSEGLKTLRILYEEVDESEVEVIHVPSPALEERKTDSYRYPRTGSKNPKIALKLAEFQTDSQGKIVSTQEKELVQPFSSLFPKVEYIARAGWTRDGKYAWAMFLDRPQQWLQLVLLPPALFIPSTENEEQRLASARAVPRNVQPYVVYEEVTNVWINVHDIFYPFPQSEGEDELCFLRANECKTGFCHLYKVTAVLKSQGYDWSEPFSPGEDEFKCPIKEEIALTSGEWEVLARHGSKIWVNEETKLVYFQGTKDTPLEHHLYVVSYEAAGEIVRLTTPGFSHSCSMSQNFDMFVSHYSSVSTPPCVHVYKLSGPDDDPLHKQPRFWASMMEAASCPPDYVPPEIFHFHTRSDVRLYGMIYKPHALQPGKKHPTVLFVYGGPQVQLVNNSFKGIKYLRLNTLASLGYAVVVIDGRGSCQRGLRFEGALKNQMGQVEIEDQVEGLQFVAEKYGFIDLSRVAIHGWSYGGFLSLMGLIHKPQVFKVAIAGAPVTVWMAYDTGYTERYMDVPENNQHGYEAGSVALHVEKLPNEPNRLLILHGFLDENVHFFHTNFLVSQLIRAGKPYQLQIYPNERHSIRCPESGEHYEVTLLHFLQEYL
Description: Compounds were tested in a biochemical inhibition assay using human dipeptidylpeptidase 9 (hDPP9) enzyme (R&D, #5419-SE-010) and the substrate Gly-Pro-amino-methylcoumarin (Enzo #BML-P189-0005) at 10 μM FAC. The enzymatic reactions were conducted in duplicate at rt for 30 min in 50 μL assay buffer (50 mM Tris, pH 7.5, 0.1% BSA). Compound solutions (in DMSO) at 10 CR, 3-fold dilution series were prepared in assay buffer ten-fold higher than the final concentration, and 5 μL of the dilution was added to a 50 μL reaction so that the highest compound concentration was 10 μM FAC and the concentration of DMSO was 1% in all wells. The plates were read on a PHERAstarPLUS (BMG) using kinetic mode with excitation 340 nm and emission 460 nm. Data were analyzed in Graph Pad Prism. […] Raw data signals were normalized using 1% DMSO as 0% control and no enzyme as 100% inhibitor control.

FAP Human Plasma = FAP Human Plasma (Homo sapiens (Human), UniProt Q12884); assay: FAP plasma inhibition assay, human plasma; assay type: biochemical; conditions: human plasma dilution 1:40, Ala-Pro-AMC 75 μM; n = 1
Chain of FAP Human Plasma (Q12884 24-760 limits assumed): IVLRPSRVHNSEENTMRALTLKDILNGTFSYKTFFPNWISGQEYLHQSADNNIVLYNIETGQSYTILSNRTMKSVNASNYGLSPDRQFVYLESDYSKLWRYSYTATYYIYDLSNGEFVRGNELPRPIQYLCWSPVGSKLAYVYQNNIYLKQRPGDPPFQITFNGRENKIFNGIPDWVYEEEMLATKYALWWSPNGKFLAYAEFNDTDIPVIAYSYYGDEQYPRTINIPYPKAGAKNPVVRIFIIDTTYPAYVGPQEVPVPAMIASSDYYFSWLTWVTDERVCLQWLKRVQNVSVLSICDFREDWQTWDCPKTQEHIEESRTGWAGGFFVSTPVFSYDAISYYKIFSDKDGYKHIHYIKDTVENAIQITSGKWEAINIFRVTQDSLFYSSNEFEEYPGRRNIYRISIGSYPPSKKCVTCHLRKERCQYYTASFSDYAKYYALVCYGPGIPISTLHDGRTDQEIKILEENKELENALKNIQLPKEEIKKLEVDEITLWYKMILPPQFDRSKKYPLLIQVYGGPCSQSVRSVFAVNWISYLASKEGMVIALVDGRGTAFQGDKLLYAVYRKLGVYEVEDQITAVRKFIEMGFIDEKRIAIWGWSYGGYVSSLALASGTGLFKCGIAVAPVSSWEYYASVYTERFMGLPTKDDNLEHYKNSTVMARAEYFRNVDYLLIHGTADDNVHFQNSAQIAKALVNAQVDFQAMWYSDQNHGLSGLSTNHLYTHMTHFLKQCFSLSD
Description: (§1) This assay was adapted from the method described in Example 53 for detection of FAP target engagement enzyme activity in plasma. Plasma (anticoagulant K2EDTA) was used as the enzyme source: Human plasma (Pooled from AZ Biobank) and Mouse plasma (AZ AST Biobank). 384-Well black fluotrack PS plates (Greiner 781076) were used. 20 μL diluted plasma (Human plasma dilution 1:40, Mouse plasma dilution 1:67) in buffer (PBS, 0.1% BSA) was added to 0.6 μL compounds (in DMSO). Compounds were tested using 10 CR, 3-fold dilution series from 500 nM FAC. Two replicates for each assay point were run on the same plate. A fluorescence blank read was taken before substrate addition. Substrate, Ala-Pro-AMC (ARI-3144) stock solution (20 mM in DMSO) was diluted in buffer (PBS, 0.1% BSA) to 150 μM concentration and 20 μL added giving 75 μM FAC. Plates were incubated for 40 min at rt in the dark. The plates were read on a Beckman Paradigm® reader with excitation 360 nm and emission 465 nm. Data were analyzed in Excel (IDBS XLfit Add-In) using a one site dose response model (4-parameter logistic fit). […] Raw data signals were normalized using 1.5% DMSO in diluted plasma as 0% control and 1.5% DMSO in buffer (no plasma) as 100% inhibitor control.

Human Hepatocytes (hHep) = assay: Metabolic stability in human hepatocytes (hHep); assay type: in vitro ADME
Description: Metabolic stability in human hepatocytes was measured as described in Xenobiotica 2010, 40, 637.

[4] = target: human dipeptidylpeptidase 8 (hDPP8) (Homo sapiens (Human), UniProt Q6V1X1); assay: hDPP8 inhibition assay; assay type: biochemical; conditions: single concentration 10 μM; n = 1
Chain of human dipeptidylpeptidase 8 (hDPP8) (Q6V1X1 whole entry): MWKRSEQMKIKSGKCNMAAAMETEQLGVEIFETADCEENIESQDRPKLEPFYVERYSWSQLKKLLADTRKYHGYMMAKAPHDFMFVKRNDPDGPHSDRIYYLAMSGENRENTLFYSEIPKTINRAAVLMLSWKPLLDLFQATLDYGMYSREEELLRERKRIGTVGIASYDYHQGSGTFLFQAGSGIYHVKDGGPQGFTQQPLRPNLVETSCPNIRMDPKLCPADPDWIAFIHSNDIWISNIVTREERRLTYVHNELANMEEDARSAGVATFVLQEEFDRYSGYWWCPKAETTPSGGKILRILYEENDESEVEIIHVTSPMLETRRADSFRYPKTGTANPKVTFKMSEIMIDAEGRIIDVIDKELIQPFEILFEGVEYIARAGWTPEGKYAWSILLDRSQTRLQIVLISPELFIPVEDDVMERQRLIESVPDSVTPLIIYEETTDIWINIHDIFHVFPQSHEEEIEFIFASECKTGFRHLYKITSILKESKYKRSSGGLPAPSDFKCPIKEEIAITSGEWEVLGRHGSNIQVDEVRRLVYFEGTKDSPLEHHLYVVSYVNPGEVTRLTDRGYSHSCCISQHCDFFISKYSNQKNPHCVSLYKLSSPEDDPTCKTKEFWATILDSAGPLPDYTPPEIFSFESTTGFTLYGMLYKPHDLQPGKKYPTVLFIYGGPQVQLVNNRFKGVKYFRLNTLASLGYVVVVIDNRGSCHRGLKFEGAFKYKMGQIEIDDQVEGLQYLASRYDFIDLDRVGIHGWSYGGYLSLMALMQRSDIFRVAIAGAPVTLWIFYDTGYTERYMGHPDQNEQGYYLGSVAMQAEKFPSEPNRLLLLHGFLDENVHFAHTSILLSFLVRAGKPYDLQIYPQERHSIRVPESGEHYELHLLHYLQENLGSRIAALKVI
Description: Compounds were tested in a biochemical inhibition assay using human dipeptidylpeptidase 8 (hDPP8) enzyme (BPS Bioscience, #80800) and the substrate Gly-Pro-amino-methylcoumarin (Enzo #BML-P189-0005) at 10 μM FAC. The enzymatic reactions were conducted in duplicate at rt for 20 min in 50 μL assay buffer (50 mM Tris, pH 7.5, 0.1% BSA). Compound solutions (in DMSO), were prepared in assay buffer ten-fold higher than the final concentration, and 5 μL of the dilution was added to a 50 μL reaction so that the compound concentration was 10 μM FAC and the concentration of DMSO was 1% in all wells. The plates were read on a PHERAstarPLUS (BMG) using kinetic mode with excitation 340 nm and emission 460 nm. Data were analyzed in Graph Pad Prism. Raw data signals were normalized using 1% DMSO as 0% control and no enzyme as 100% inhibitor control.

FAP Mouse Plasma = FAP Mouse Plasma (Mus musculus (Mouse), UniProt P97321); assay: FAP plasma inhibition assay, mouse plasma; assay type: biochemical; conditions: mouse plasma dilution 1:67, Ala-Pro-AMC 75 μM; n = 1
Chain of FAP Mouse Plasma (P97321 24-761 limits assumed): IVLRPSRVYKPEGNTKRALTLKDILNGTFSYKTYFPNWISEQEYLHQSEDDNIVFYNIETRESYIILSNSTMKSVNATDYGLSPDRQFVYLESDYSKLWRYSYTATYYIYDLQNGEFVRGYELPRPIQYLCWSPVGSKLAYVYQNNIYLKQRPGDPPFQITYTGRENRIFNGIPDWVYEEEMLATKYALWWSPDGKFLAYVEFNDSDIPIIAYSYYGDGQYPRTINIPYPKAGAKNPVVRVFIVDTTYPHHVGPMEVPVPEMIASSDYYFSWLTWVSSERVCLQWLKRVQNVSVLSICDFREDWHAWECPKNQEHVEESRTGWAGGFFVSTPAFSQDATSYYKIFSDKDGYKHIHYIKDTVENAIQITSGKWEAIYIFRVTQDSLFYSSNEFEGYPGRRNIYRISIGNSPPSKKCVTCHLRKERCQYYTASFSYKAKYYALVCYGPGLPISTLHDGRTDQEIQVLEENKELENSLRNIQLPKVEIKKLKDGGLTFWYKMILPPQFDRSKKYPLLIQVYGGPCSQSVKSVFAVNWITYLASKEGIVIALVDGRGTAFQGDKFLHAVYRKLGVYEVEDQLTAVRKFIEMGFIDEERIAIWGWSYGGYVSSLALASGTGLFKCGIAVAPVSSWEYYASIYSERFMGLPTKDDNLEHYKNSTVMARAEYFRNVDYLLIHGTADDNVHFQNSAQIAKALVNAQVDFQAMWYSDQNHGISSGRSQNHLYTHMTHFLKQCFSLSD
Description: as §1

hFAP (M39-A757) = hFAP (M39-A757) (Homo sapiens (Human), UniProt Q12884)
Chain of hFAP (M39-A757) (Q12884 39-757): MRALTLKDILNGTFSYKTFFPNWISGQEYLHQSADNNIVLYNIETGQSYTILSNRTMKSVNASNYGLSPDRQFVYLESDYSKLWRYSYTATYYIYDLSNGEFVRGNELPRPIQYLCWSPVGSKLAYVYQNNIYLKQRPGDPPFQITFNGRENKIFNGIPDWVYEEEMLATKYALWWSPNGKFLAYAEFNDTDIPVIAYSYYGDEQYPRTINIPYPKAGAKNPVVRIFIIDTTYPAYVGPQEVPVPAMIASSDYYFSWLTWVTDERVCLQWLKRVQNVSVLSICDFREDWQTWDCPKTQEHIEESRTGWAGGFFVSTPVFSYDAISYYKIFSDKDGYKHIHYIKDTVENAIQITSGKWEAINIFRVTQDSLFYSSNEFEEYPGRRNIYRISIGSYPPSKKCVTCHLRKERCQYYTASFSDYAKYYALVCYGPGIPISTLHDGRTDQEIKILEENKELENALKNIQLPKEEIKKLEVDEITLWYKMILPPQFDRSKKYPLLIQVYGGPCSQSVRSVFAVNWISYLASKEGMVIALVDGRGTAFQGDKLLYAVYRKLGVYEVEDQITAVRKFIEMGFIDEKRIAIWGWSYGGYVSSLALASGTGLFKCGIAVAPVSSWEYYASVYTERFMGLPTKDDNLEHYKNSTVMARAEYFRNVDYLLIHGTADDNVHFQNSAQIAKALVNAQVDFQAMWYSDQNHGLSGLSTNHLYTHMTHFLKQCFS
Description: Compounds were tested in a direct binding assay using 8K surface plasmon resonance biosensor (GE Healthcare) at 20° C. Immobilization of hFAP (M39-A757) on a CMD200M sensor chip (Xantec) was performed using standard amine coupling procedure in immobilization buffer (10 mM HEPES, 150 mM NaCl, 0.05% Tween20, pH 7.4). The surface was washed with 10 mM NaOH, 1M NaCl before being activated with EDC/NHS (GE Healthcare), followed by immobilization of hFAP (in 10 mM Acetate pH 5.0). Finally, the surface was deactivated by ethanolamine. Immobilization levels of hFAP were around 4000-6000 RU. The reference spot was treated as described, omitting the injection of hFAP. Compound concentration series were injected over the immobilized protein in increasing concentrations (2-500 nM) using single cycle kinetics in running buffer (20 mM TRIS, 150 mM NaCl, 0.05% Tween20, 1% DMSO, pH 7.4). Interaction models were fitted globally to the experimental traces, enabling determination of kon, koff and Kd.

Chain of Prolyl Oligopeptidase (hPREP) (P48147 whole entry): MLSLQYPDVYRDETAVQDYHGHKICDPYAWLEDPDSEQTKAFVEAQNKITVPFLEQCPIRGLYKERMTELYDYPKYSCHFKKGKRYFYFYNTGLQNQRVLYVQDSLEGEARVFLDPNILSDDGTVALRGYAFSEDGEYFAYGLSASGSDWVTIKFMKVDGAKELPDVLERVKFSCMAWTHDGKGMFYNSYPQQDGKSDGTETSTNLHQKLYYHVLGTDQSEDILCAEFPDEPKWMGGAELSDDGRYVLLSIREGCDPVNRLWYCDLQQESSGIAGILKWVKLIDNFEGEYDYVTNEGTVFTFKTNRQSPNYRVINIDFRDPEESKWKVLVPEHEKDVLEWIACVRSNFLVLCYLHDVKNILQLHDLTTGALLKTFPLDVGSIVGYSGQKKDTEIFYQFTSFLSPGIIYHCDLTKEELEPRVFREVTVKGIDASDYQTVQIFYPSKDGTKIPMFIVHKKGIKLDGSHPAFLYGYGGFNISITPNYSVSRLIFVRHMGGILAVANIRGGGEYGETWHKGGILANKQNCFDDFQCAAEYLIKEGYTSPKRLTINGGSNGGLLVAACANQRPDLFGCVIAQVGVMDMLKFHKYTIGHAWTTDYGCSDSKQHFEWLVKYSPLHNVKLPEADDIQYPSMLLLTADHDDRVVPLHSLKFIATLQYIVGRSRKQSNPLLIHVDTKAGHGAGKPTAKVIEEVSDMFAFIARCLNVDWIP

| IC50 [1] [nM] | IC50 [2] [nM] | IC50 [3] [nM] | IC50 (FAP Human Plasma) [nM] | hHep CLint (Human Hepatocytes (hHep)) [μL/min/1E6] | hDPP8 Activity at Compound Concentration 10 μM [4] | IC50 (FAP Mouse Plasma) [nM] | Kd (hFAP (M39-A757)) [nM] | Compound |
| --- | --- | --- | --- | --- | --- | --- | --- | --- |
| 31000 | > 10 | > 10 | 1.6 | <1 | Not Active | 0.73 |  | Cc1ccc2c(C(=O)NCC(=O)N3[C@H](C#N)C[C@@H]4C[C@@H]43)ccnc2c1 [Example 20, N-(2-((1S,3S,5S)-3-Cyano-2-azabicyclo[3.1.0]hexan-2-yl)-2-oxoethyl)-7-methylquinoline-4-carboxamide] |
| > 50000 |  |  | 4.1 | <1 |  | 2.8 | 5.5 | N#C[C@@H]1C[C@@H]2C[C@@H]2N1C(=O)CNC(=O)c1ccnc2cc(C3(C#N)CC3)ccc12 [Example 40, N-(2-((1S,3S,5S)-3-Cyano-2-azabicyclo[3.1.0]hexan-2-yl)-2-oxoethyl)-7-(1-cyanocyclopropyl)quinoline-4-carboxamide] |
